Experimental data published in PubChem BioAssay AID1259407 (Chemical Carcinogenesis Research Information System (CCRIS), 2018).
Activity calls are given as the source filed them. How the calls were made is not given here.

Test system: CCRIS mutagenicity, Ames/micronucleus/aberration tests
Assay: CCRIS mutagenicity studies

Nc1cc(Cl)ccc1O
mutagenic call (End Point: In vitro chromosomal aberrations, Test System: Chinese hamster lung (CHL/IU) cells, Metabolic Activation: Rat, Liver, S9, Phenobarbital and 5,6-benzoflavone): active; positive (structural changes and ploidy). structural changes not dose related. | mutagenic call (Test System: AMES SALMONELLA TYPHIMURIUM, Strain/Indicator: TA97, Metabolic Activation: HAMSTER, LIVER, S-9, AROCLOR 1254 (10%), Method: PREINCUBATION): inactive; negative | mutagenic call (Test System: AMES SALMONELLA TYPHIMURIUM, Strain/Indicator: TA97, Metabolic Activation: HAMSTER, LIVER, S-9, AROCLOR 1254 (30%), Method: PREINCUBATION): inactive; negative | mutagenic call (Test System: AMES SALMONELLA TYPHIMURIUM, Strain/Indicator: TA97, Metabolic Activation: NONE, Method: PREINCUBATION): inactive; negative | mutagenic call (Test System: AMES SALMONELLA TYPHIMURIUM, Strain/Indicator: TA97, Metabolic Activation: RAT, LIVER, S-9, AROCLOR 1254 (10%), Method: PREINCUBATION): inactive; negative | mutagenic call (Test System: AMES SALMONELLA TYPHIMURIUM, Strain/Indicator: TA97, Metabolic Activation: RAT, LIVER, S-9, AROCLOR 1254 (30%), Method: PREINCUBATION): inactive; negative | mutagenic call (Test System: AMES SALMONELLA TYPHIMURIUM, Strain/Indicator: TA98, Metabolic Activation: HAMSTER, LIVER, S-9, AROCLOR 1254 (10%), Method: PREINCUBATION): inactive; negative | mutagenic call (Test System: AMES SALMONELLA TYPHIMURIUM, Strain/Indicator: TA98, Metabolic Activation: NONE, Method: PREINCUBATION): inactive; negative | mutagenic call (Test System: AMES SALMONELLA TYPHIMURIUM, Strain/Indicator: TA98, Metabolic Activation: RAT, LIVER, S-9, AROCLOR 1254 (10%), Method: PREINCUBATION): inactive; negative | mutagenic call (Test System: AMES SALMONELLA TYPHIMURIUM, Strain/Indicator: TA98, Metabolic Activation: RAT, LIVER, S-9, PHENOBARBITAL AND BETA-NAPHTHOFLAVONE, Method: PREINCUBATION): inactive; negative | mutagenic call (Test System: AMES SALMONELLA TYPHIMURIUM, Strain/Indicator: TA100, Metabolic Activation: HAMSTER, LIVER, S-9, AROCLOR 1254 (10%), Method: PREINCUBATION): inactive; negative | mutagenic call (Test System: AMES SALMONELLA TYPHIMURIUM, Strain/Indicator: TA100, Metabolic Activation: NONE, Method: PREINCUBATION): inactive; negative | mutagenic call (Test System: AMES SALMONELLA TYPHIMURIUM, Strain/Indicator: TA100, Metabolic Activation: RAT, LIVER, S-9, AROCLOR 1254 (10%), Method: PREINCUBATION): inactive; negative | mutagenic call (Test System: AMES SALMONELLA TYPHIMURIUM, Strain/Indicator: TA1535, Metabolic Activation: HAMSTER, LIVER, S-9, AROCLOR 1254 (5%), Method: PREINCUBATION): active; positive | mutagenic call (Test System: AMES SALMONELLA TYPHIMURIUM, Strain/Indicator: TA1535, Metabolic Activation: HAMSTER, LIVER, S-9, AROCLOR 1254 (10%), Method: PREINCUBATION): active; positive | mutagenic call (Test System: AMES SALMONELLA TYPHIMURIUM, Strain/Indicator: TA1535, Metabolic Activation: HAMSTER, LIVER, S-9, AROCLOR 1254 (30%), Method: PREINCUBATION): active; positive | mutagenic call (Test System: AMES SALMONELLA TYPHIMURIUM, Strain/Indicator: TA1535, Metabolic Activation: NONE, Method: PREINCUBATION): inactive; negative | mutagenic call (Test System: AMES SALMONELLA TYPHIMURIUM, Strain/Indicator: TA1535, Metabolic Activation: RAT, LIVER, S-9, AROCLOR 1254 (5%), Method: PREINCUBATION): active; positive | mutagenic call (Test System: AMES SALMONELLA TYPHIMURIUM, Strain/Indicator: TA1535, Metabolic Activation: RAT, LIVER, S-9, AROCLOR 1254 (10%), Method: PREINCUBATION): active; positive | mutagenic call (Test System: AMES SALMONELLA TYPHIMURIUM, Strain/Indicator: TA1535, Metabolic Activation: RAT, LIVER, S-9, AROCLOR 1254 (30%), Method: PREINCUBATION): inactive; negative | mutagenic call (Test System: AMES SALMONELLA TYPHIMURIUM, Strain/Indicator: TA1535, Metabolic Activation: RAT, LIVER, S-9, PHENOBARBITAL AND BETA-NAPHTHOFLAVONE, Method: PREINCUBATION): inactive; negative | mutagenic call (Test System: AMES SALMONELLA TYPHIMURIUM, Strain/Indicator: TA1537, Metabolic Activation: NONE, Method: PREINCUBATION): inactive; negative | mutagenic call (Test System: E. COLI, Strain/Indicator: WP2UVRA, Metabolic Activation: NONE, Method: PREINCUBATION): inactive; negative | mutagenic call (Test System: E. COLI, Strain/Indicator: WP2UVRA, Metabolic Activation: RAT, LIVER, S-9, PHENOBARBITAL AND BETA-NAPHTHOFLAVONE, Method: PREINCUBATION): inactive; negative

CNC(=O)CN(CCN(CCN(CC(=O)O)CC(=O)NC)CC(=O)O)CC(=O)O
mutagenic call (Test System: AMES SALMONELLA TYPHIMURIUM, Strain/Indicator: TA98, Metabolic Activation: NONE): inactive; negative | mutagenic call (Test System: AMES SALMONELLA TYPHIMURIUM, Strain/Indicator: TA98, Metabolic Activation: RAT, LIVER, S-9, AROCLOR 1254): inactive; negative | mutagenic call (Test System: AMES SALMONELLA TYPHIMURIUM, Strain/Indicator: TA100, Metabolic Activation: NONE): inactive; negative | mutagenic call (Test System: AMES SALMONELLA TYPHIMURIUM, Strain/Indicator: TA100, Metabolic Activation: RAT, LIVER, S-9, AROCLOR 1254): inactive; negative | mutagenic call (Test System: AMES SALMONELLA TYPHIMURIUM, Strain/Indicator: TA1535, Metabolic Activation: NONE): inactive; negative | mutagenic call (Test System: AMES SALMONELLA TYPHIMURIUM, Strain/Indicator: TA1535, Metabolic Activation: RAT, LIVER, S-9, AROCLOR 1254): inactive; negative | mutagenic call (Test System: AMES SALMONELLA TYPHIMURIUM, Strain/Indicator: TA1537, Metabolic Activation: NONE): inactive; negative | mutagenic call (Test System: AMES SALMONELLA TYPHIMURIUM, Strain/Indicator: TA1537, Metabolic Activation: RAT, LIVER, S-9, AROCLOR 1254): inactive; negative | mutagenic call (Test System: CHINESE HAMSTER OVARY, Strain/Indicator: CHO-K1-BH4 (HGPRT)/6-THIOGUANINE, Metabolic Activation: NONE): inactive; negative | mutagenic call (Test System: CHINESE HAMSTER OVARY, Strain/Indicator: CHO-K1-BH4 (HGPRT)/6-THIOGUANINE, Metabolic Activation: RAT, LIVER, S-9, AROCLOR 1254): inactive; negative | mutagenic call (Test System: E.COLI, Strain/Indicator: WP2 UVRA, Metabolic Activation: NONE): inactive; negative | mutagenic call (Test System: E.COLI, Strain/Indicator: WP2 UVRA, Metabolic Activation: RAT, LIVER, S-9, AROCLOR 1254): inactive; negative

CC1(C)CON(Cc2ccccc2Cl)C1=O
mutagenic call (End Point: In vivo chromosomal aberrations, Test System: Bone marrow, Species: Rat, Strain/Sex: Sprague-Dawley/Male, Route: Gavage): inactive; negative (purity 88.8%) | mutagenic call (Test System: Ames Salmonella typhimurium, Strain/Indicator: TA98, Metabolic Activation: None, Method: Standard Plate): inactive; negative (purity 92.4%) | mutagenic call (Test System: Ames Salmonella typhimurium, Strain/Indicator: TA98, Metabolic Activation: Rat, liver, S-9, Aroclor 1254, Method: Standard Plate): inactive; negative (purity 92.4%) | mutagenic call (Test System: Ames Salmonella typhimurium, Strain/Indicator: TA100, Metabolic Activation: None, Method: Standard Plate): inactive; negative (purity 92.4%) | mutagenic call (Test System: Ames Salmonella typhimurium, Strain/Indicator: TA100, Metabolic Activation: Rat, liver, S-9, Aroclor 1254, Method: Standard Plate): inactive; negative (purity 92.4%) | mutagenic call (Test System: Ames Salmonella typhimurium, Strain/Indicator: TA1535, Metabolic Activation: None, Method: Standard Plate): inactive; negative (purity 92.4%) | mutagenic call (Test System: Ames Salmonella typhimurium, Strain/Indicator: TA1535, Metabolic Activation: Rat, liver, S-9, Aroclor 1254, Method: Standard Plate): inactive; negative (purity 92.4%) | mutagenic call (Test System: Ames Salmonella typhimurium, Strain/Indicator: TA1537, Metabolic Activation: None, Method: Standard Plate): inactive; negative (purity 92.4%) | mutagenic call (Test System: Ames Salmonella typhimurium, Strain/Indicator: TA1537, Metabolic Activation: Rat, liver, S-9, Aroclor 1254, Method: Standard Plate): inactive; negative (purity 92.4%) | mutagenic call (Test System: Ames Salmonella typhimurium, Strain/Indicator: TA1538, Metabolic Activation: None, Method: Standard Plate): inactive; negative (purity 92.4%) | mutagenic call (Test System: Ames Salmonella typhimurium, Strain/Indicator: TA1538, Metabolic Activation: Rat, liver, S-9, Aroclor 1254, Method: Standard Plate): inactive; negative (purity 92.4%) | mutagenic call (Test System: UDS Rat hepatocytes, Strain/Indicator: Thymidine incorporation, Metabolic Activation: None, Method: Autoradiography): inactive; negative (purity 88.8%)
